In PMC10610545, “Preclinical Evaluation of an Imidazole-Linked Heterocycle for Alzheimer’s Disease” (Pharmaceutics, 2023):

Assays:
Format in all cases: in vivo, mouse
[1] = system: Ngf, Bdnf, Tnf-a, Il-6 gene expression; test: Real-time PCR gene expression in hippocampus of 5XFAD mice; settings: 2 mg/Kg
Procedure: (§1) Four-month-old female and male Wt and 5XFAD mice (n = 32) were used to carry out cognitive and molecular analyses. […] The animals had free access to food and water and were kept under standard temperature conditions (22 ± 2 °C) and 12 h/12 h light/dark cycles (300 lx/0 lx). […] After 4 weeks of treatment, cognitive tests, including short- and long-term memory and OLT, were performed to study the effects of treatment on learning and memory. Weight and water consumption were controlled each week, and the LSL33 concentration was adjusted accordingly to reach the optimal dose until euthanasia.
(§2) Three days after cognitive tests, mice were euthanized for protein extraction and RNA and DNA isolation. After euthanasia, the brains were immediately removed from the skulls, and the hippocampi were dissected, frozen, and maintained at −80 °C.
Total RNA isolation was carried out using TRIzol® reagent according to the manufacturer’s instructions. The yield, purity, and quality of RNA were determined spectrophotometrically with a NanoDrop™ ND-1000 apparatus (Thermo Scientific, Waltham, MA, USA) and an Agilent 2100B Bioanalyzer (Agilent Technologies, Santa Clara, CA, USA). RNA samples with 260/280 ratios and RNA integrity numbers (RINs) higher than 1.9 and 7.5, respectively, were selected. A reverse transcription-polymerase chain reaction (RT-PCR) was performed. Briefly, 2 μg of messenger RNA (mRNA) was reverse-transcribed using a high-capacity cDNA reverse transcription kit (Applied Biosystems, Foster City, CA, USA).
SYBR® Green real-time PCR was performed on a StepOnePlus Detection System (Applied Biosystems) with SYBR® Green PCR master mix (Applied Biosystems). Each reaction mixture contained 6.75 μL of complementary DNA (cDNA) (with a concentration of 2 μg), 0.75 μL of each primer (with a concentration of 100 nM), and 6.75 μL of SYBR® Green PCR master mix (2×).
The data were analyzed utilizing the comparative cycle threshold (Ct) (ΔΔCt) method, in which the levels of a housekeeping gene are used to normalize differences in sample loading and preparation. Normalization of expression levels was performed with β-actin for SYBR® Green-based real-time PCR. Each sample was analyzed in duplicate, and the results represent the n-fold differences in the transcript levels among different groups.
Figure 7 Results from an in vivo study of synaptic plasticity markers. (A) Representative protein levels and quantification by WB for PSD95. (B,C) Representative gene expression for Ngf and Bdnf Gene expression levels were determined by real-time PCR. The data correspond to the mean ± SEM (n = 3–5 mice per group). […]
Figure 8 Results from an in vivo study Neuroinflammatory markers. Representative gene expression for Tnf-a and Il-6 Gene expression levels were determined by real-time PCR. […]

5XFAD mice [2] = test: Novel object recognition test (NORT) in 5XFAD mice; settings: 2 mg/Kg in drinking water, 4 weeks, vs 5XFAD Control
Procedure: as §1
Short- and long-term recognition memories involving cortical areas and the hippocampus were evaluated by NORT. The experimental apparatus used for this test was a 90-degree, two-arm, 25-cm-long, 20-cm-high maze of black polyvinyl chloride. The light intensity in the middle of the field was 30 lux. First, mice were individually habituated to the apparatus for 10 min per day for 3 days. On day 4, the animals were allowed to freely explore two identical objects (A and A or B and B) placed at the end of each arm for a 10 min acquisition trial (first trial-familiarization). […] During the short-term memory retention test, the time that the animal spent exploring the new object (TN) and the old object (TO) was recorded. […] TN and TO were measured from the video recordings from each trial session. […]

PSD95 = test: Western blot of hippocampal PSD95 in 5XFAD mice; settings: 5XFAD hippocampus, 2 mg/Kg, vs 5XFAD Control
Procedure: as §1, §2
For western blotting (WB), aliquots of 20 μg of hippocampal protein were used. […]
The membranes were washed and incubated with secondary antibodies for 1 h at room temperature. […] Protein loading was routinely monitored by immunodetection of glyceraldehyde-3-phosphate dehydrogenase (GAPDH).
Figure 7 Results from an in vivo study of synaptic plasticity markers. (A) Representative protein levels and quantification by WB for PSD95. (B,C) Representative gene expression for Ngf and Bdnf Gene expression levels were determined by real-time PCR. […]

5XFAD mice [3] = test: Object location test (OLT) in 5XFAD mice; settings: 2 mg/Kg in drinking water, 4 weeks, vs 5XFAD Control
Procedure: as §1
The OLT evaluated the spontaneous tendency of rodents to spend more time exploring a novel object location than a familiar object location and recognizing when an object has been relocated. OLT was performed using a white plywood apparatus (50 × 50 × 25 cm), in which three walls were white and one was black. On the first day, animals were just habituated to the empty open-field arena for 10 min. On the second day, two objects were placed in front of the black wall, equidistant from each other and the wall. The objects were 10 cm high and identical. […] Trials were recorded using a camera mounted above the open field area, and the total exploration time was determined by scoring TN and TO. DI was calculated, defined as (TN−TO)/(TN+TO). […]

[4] = 5XFAD hippocampus, vs 5XFAD Control

SMILES: Cl.c1ccc2sc(-c3ncc[nH]3)cc2c1 [LSL33, 2-(Benzo[b]thiophene-2-yl)-1H-imidazole hydrochloride]
- Il-6 gene expression [1, 4]: clear tendency to reduce both cytokines
- Ngf gene expression [1, 4]: significant increase in Ngf gene expression
- Tnf-a gene expression [1, 4]: clear tendency to reduce both cytokines
- Bdnf gene expression ([1]; both treated groups (Wt and 5XFAD)): clear tendency to increase
- NORT discrimination index, short- and long-term memory (5XFAD mice [2]): significant improvement in cognitive impairment in both short- and long-term memories
- PSD95 protein levels (PSD95): increase in PSD95
- OLT discrimination index (DI) (5XFAD mice [3]): increase in the discrimination index (DI)
